Experiments:
[1] = molecular target: OGA (S400 O-GLCNAC), HEK-293T cells transfected with Tau-V5 (Homo sapiens (Human), UniProt O60502); test: Cellular OGA-Tau MSD Assay; format: cell-based; conditions: HEK-293T cells, Tau-S400-GlcNAc MSD readout
In short: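 HEK-293T cells transfected with OGA and Tau-V5 plasmids were treated overnight at 37° C with a 10-point, 3-fold titration from 1 uM. Lysates went onto V5-antibody MSD plates to capture Tau, probed with a Tau O-GlcNAc antibody and read by electrochemiluminescence; IC50 from a 4-parameter fit.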

[2] = Rat Liver Microsome Stability Assay; format: in vitro ADME; conditions: rat liver microsomes, 1 uM compound
P-gp (MDR1) = test: MDR1-MDCK Efflux Ratio Assay; format: in vitro ADME; conditions: dog, MDCK-MDR1, pH 7.4, MDR1-MDCK cells, 2 hr, pH 7.4; read-out: MDR1-MDCK Efflux Ratio (B-A/A-B)
In short: (§1)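 Bidirectional (apical↔basolateral) transport across confluent MDR1-MDCK monolayers in HBSS/10 mM HEPES pH 7.4, receiver buffer with 1% BSA; 2 hr at 37° C, 5% CO2. Donor sampled at 0 and 120 min, receiver at 120 min, quantified by LC-MS/MS in triplicate. Papp, efflux ratio and percent recovery calculated.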

[3] = molecular target: Recombinant full length human OGA enzyme (Homo sapiens (Human), UniProt O60502); test: OGA Enzyme Inhibition Biochemical Assay; conditions: 1 nM OGA, 100 μM 4-MUGlcNAc, pH 6.4
In short: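 Full-length recombinant human OGA with fluorogenic 4-MUGlcNAc in McIlvaine buffer pH 6.4, 0.01% BSA; 90 min at room temperature, glycine pH 10 quench, fluorescence Ex 355/Em 460 nm. 10-point, 4-fold dilution from 20 μM; 4-parameter variable-slope fit.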

[4] = tested on: MDR1-MDCK cell monolayers; test: MDR1-MDCK Efflux Ratio Assay; format: in vitro ADME; conditions: MDR1-MDCK cells, 2 hr, pH 7.4
In short: as §1

Sequence of Recombinant full length human OGA enzyme (O60502 whole entry): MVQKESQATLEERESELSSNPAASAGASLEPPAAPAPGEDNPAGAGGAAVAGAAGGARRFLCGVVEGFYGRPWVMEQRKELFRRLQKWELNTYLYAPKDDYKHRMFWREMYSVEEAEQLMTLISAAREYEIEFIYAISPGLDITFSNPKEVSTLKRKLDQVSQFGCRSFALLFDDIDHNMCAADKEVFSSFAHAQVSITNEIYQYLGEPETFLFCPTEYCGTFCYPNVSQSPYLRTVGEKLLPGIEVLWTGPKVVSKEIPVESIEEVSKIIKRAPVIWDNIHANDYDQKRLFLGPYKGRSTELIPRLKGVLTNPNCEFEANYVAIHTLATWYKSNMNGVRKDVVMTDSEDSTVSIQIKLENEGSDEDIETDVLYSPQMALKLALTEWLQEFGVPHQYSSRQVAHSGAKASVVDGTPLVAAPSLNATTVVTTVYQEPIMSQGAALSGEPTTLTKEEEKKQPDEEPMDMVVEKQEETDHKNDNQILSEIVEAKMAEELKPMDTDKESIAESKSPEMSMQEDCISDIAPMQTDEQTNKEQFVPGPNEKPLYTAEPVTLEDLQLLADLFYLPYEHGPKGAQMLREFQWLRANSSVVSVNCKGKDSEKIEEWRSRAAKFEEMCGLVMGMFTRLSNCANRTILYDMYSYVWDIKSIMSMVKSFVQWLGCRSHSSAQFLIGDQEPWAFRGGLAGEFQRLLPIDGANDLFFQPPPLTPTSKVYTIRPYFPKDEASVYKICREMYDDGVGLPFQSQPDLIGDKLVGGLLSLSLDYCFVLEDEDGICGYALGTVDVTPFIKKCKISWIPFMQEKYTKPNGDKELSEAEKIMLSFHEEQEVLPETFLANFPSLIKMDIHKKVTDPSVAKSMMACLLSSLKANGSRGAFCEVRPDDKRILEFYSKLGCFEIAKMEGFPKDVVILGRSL
Sequence of OGA (S400 O-GLCNAC), HEK-293T cells transfected with Tau-V5 (O60502 whole entry): as above

Row | Compound | IC50 [1] | RLM % Qh (%) [2] | efflux ratio at 2 h (P-gp (MDR1)) | IC50 [3] | MDR1-MDCK Efflux Ratio (B-A/A-B) [4]
1 | CC(=O)Nc1ncc(CN2C[C@H](Oc3cc(OC(C)C)ncn3)C[C@@H]2C)s1 [Example 1-127, N-(5-(((2S,4R)-4-((6-isopropoxypyrimidin-4-yl)oxy)-2-methylpyrrolidin-1-yl)methyl)thiazol-2-yl)acetamide] | 8 nM | 62% | 3.1 | 1.9 nM | –
2 | CC(=O)Nc1ncc(CN2C[C@H](Oc3cc(N4CCOCC4)ncn3)C[C@@H]2C)s1 [Example 1-130, N-(5-(((2S,4R)-2-methyl-4-((6-morpholinopyrimidin-4-yl)oxy)pyrrolidin-1-yl)methyl)thiazol-2-yl)acetamide] | 3 nM | 37% | 30.3 | < 1 nM | –
3 | CC(=O)Nc1ncc(CN2C[C@H](Oc3cc(NC(C)C)ncn3)C[C@@H]2C)s1 [Example 1-136, N-(5-(((2S,4R)-4-((6-(isopropylamino)pyrimidin-4-yl)oxy)-2-methylpyrrolidin-1-yl)methyl)thiazol-2-yl)acetamide] | 2 nM | 24% | 32 | < 1 nM | –
4 | CC(=O)Nc1ncc(CN2C[C@H](Oc3cc(OC4CCCC4)ncn3)C[C@@H]2C)s1 [Example 1-138, N-(5-(((2S,4R)-4-((6-(cyclopentyloxy)pyrimidin-4-yl)oxy)-2-methylpyrrolidin-1-yl)methyl)thiazol-2-yl)acetamide] | 28 nM | 87% | 2.6 | < 1 nM | –
5 | CC(=O)Nc1nc(F)c(CN2C[C@H](Oc3cc(OC4COC4)ncn3)C[C@@H]2C)s1 [Example 1-140, N-(4-fluoro-5-(((2S,4R)-2-methyl-4-((6-(oxetan-3-yloxy)pyrimidin-4-yl)oxy)pyrrolidin-1-yl)methyl)thiazol-2-yl)acetamide] | 4 nM | 43% | 8.4 | < 1 nM | –
6 | CC(=O)Nc1nc(F)c(CN2C[C@H](Oc3cnc(N4CCOCC4)cn3)C[C@@H]2C)s1 [Example 1-142, N-(4-fluoro-5-(((2S,4R)-2-methyl-4-((5-morpholinopyrazin-2-yl)oxy)pyrrolidin-1-yl)methyl)thiazol-2-yl)acetamide] | 2 nM | 59% | 8.3 | < 1 nM | –
7 | CC(=O)Nc1nc(F)c(CN2C[C@H](Oc3cc(N4CCOCC4)ccn3)C[C@@H]2C)s1 [Example 1-143, N-(4-fluoro-5-(((2S,4R)-2-methyl-4-((4-morpholinopyridin-2-yl)oxy)pyrrolidin-1-yl)methyl)thiazol-2-yl)acetamide] | 4 nM | 75% | 25.6 | < 1 nM | –
8 | [2H][C@]1(Oc2cc(OC)ncn2)C[C@H](C)N(Cc2cnc(NC(C)=O)s2)C1 [Example 1-164, N-(5-(((2S,4S)-4-((6-methoxypyrimidin-4-yl)oxy)-2-methylpyrrolidin-1-yl-4-d)methyl)thiazol-2-yl)acetamide] | 35 nM | 49% | 3.8 | 9.7 nM | –

Results, then the compound that gave them:

Row | IC50 [1] | RLM % Qh (%) [2] | efflux ratio at 2 h (P-gp (MDR1)) | IC50 [3] | MDR1-MDCK Efflux Ratio (B-A/A-B) [4] | Compound
9 | 2 nM | 48% | 3.8 | < 1 nM | – | CCOc1cc(O[C@@H]2C[C@H](C)N(Cc3cnc(NC(C)=O)s3)C2)ncn1 [Example 1-126, N-(5-(((2S,4R)-4-((6-ethoxypyrimidin-4-yl)oxy)-2-methylpyrrolidin-1-yl)methyl)thiazol-2-yl)acetamide]
10 | 1 nM | 48% | 26.3 | < 1 nM | – | CC(=O)Nc1ncc(CN2C[C@H](Oc3cc(C)nc(C)n3)C[C@@H]2C)s1 [Example 1-128, N-(5-(((2S,4R)-4-((2,6-dimethylpyrimidin-4-yl)oxy)-2-methylpyrrolidin-1-yl)methyl)thiazol-2-yl)acetamide]
11 | 1 nM | 65% | 25.5 | < 1 nM | – | CC(=O)Nc1ncc(CN2C[C@H](Oc3cc(N4CCCC4)ncn3)C[C@@H]2C)s1 [Example 1-129, N-(5-(((2S,4R)-2-methyl-4-((6-(pyrrolidin-1-yl)pyrimidin-4-yl)oxy)pyrrolidin-1-yl)methyl)thiazol-2-yl)acetamide]
12 | 1 nM | 58% | 17.8 | < 1 nM | – | CC(=O)Nc1ncc(CN2C[C@H](Oc3cc(N(C)C)ncn3)C[C@@H]2C)s1 [Example 1-131, N-(5-(((2S,4R)-4-((6-(dimethylamino)pyrimidin-4-yl)oxy)-2-methylpyrrolidin-1-yl)methyl)thiazol-2-yl)acetamide]
13 | 2 nM | 76% | 19.7 | < 1 nM | – | CCN(C)c1cc(O[C@@H]2C[C@H](C)N(Cc3cnc(NC(C)=O)s3)C2)ncn1 [Example 1-132, N-(5-(((2S,4R)-4-((6-(ethyl(methyl)amino)pyrimidin-4-yl)oxy)-2-methylpyrrolidin-1-yl)methyl)thiazol-2-yl)acetamide]
14 | 1 nM | 43% | 23.6 | < 1 nM | – | CC(=O)Nc1ncc(CN2C[C@H](Oc3cc(N4CCC4)ncn3)C[C@@H]2C)s1 [Example 1-133, N-(5-(((2S,4R)-4-((6-(azetidin-1-yl)pyrimidin-4-yl)oxy)-2-methylpyrrolidin-1-yl)methyl)thiazol-2-yl)acetamide]
15 | 1 nM | 70% | 53.4 | < 1 nM | – | CC(=O)Nc1ncc(CN2C[C@H](Oc3cc(NC4CCC4)ncn3)C[C@@H]2C)s1 [Example 1-134, N-(5-(((2S,4R)-4-((6-(cyclobutylamino)pyrimidin-4-yl)oxy)-2-methylpyrrolidin-1-yl)methyl)thiazol-2-yl)acetamide]
16 | 1 nM | 36% | 76.5 | < 1 nM | – | CCNc1cc(O[C@@H]2C[C@H](C)N(Cc3cnc(NC(C)=O)s3)C2)ncn1 [Example 1-135, N-(5-(((2S,4R)-4-((6-(ethylamino)pyrimidin-4-yl)oxy)-2-methylpyrrolidin-1-yl)methyl)thiazol-2-yl)acetamide]
17 | 1 nM | 39% | – | < 1 nM | 2.3 | N-(4-fluoro-5-(((2S,4R)-4-((6-methoxypyrimidin-4-yl-4,5,6-^13C3)oxy)-2 methylpyrrolidin-1-yl)methyl)thiazol-2-yl)acetamide [Example 1-153]

— patent US20240308995A1, “O-GLYCOPROTEIN-2-ACETAMIDO-2-DEOXY-3-D-GLUCOPYRANOSIDASE INHIBITORS” (BIOGEN MA INC., priority 2018, published 2024)
